This note sets out measurements from US11198710B2, “Transgenic plant having herbicide resistance” (priority 2016, dated 2021).

A value given as a limit tells only on which side of the number the result lay.

What is called inhibition is how much of the control response was suppressed.

The test system of assay [1] is wild-type Arabidopsis thaliana plant (Columbia-0). Put plainly: Sensitivity of wild-type Arabidopsis thaliana to herbicides on MS agar medium. Format: in vivo. Conditions: 22° C., 14 days. The protocol: (§1) A medium was prepared as described below, so as to examine the pyroxasulfone resistance of the Arabidopsis thaliana plant comprising the TaQ8GTC0 gene introduced therein. At the outset, the Murashige-Skoog (MS) media (1 bag), thiamin hydrochloride (3 mg), nicotinic acid (5 mg), pyridoxin hydrochloride (0.5 mg), and sucrose (10 g) were added into a 1-liter beaker, a pH was adjusted to 5.7, the volume of the content was adjusted to 1 liter, and 8 g (0.8%) of agar was added. The resultant was autoclaved and cooled to room temperature, and pyroxasulfone (an acetone solution) was added thereto. A 30-ml fraction thereof was fractionated into a No. 2 square plate to prepare an MS medium containing pyroxasulfone at a given concentration.
Pyroxasulfone sensitivity of transgenic Arabidopsis thaliana plants was tested with the use of the medium prepared above as described below. A necessary amount of Arabidopsis thaliana dry seeds was agitated in 70% ethanol for 2 minutes and in hypochlorous acid containing 0.02% Triton-X-100 for 15 minutes, followed by washing with sterile water 10 times. Subsequently, the seeds were suspended in 1 ml of the autoclaved 0.1% agar solution, the suspension was thoroughly mixed to prepare a homogeneous solution, and a total of 30 seeds were each placed on the medium surface. […]

In assay [2] the test system is Arabidopsis thaliana plant comprising the TaQ8GTC0 gene introduced therein. Put plainly: Sensitivity of Arabidopsis thaliana comprising the TaQ8GTC0 gene to herbicides on MS agar medium. The class given is in vivo. Conditions: for growth of the Arabidopsis thaliana plant comprising the TaQ8GTC0 gene: KLB-718 1-1-5, 22° C. The protocol:
as §1
Pyroxasulfone sensitivity of transgenic Arabidopsis thaliana plants was tested with the use of the medium prepared above as described below. A necessary amount of Arabidopsis thaliana dry seeds was agitated in 70% ethanol for 2 minutes and in hypochlorous acid containing 0.02% Triton-X-100 for 15 minutes, followed by washing with sterile water 10 times. Subsequently, the seeds were suspended in 1 ml of the autoclaved 0.1% agar solution, the suspension was thoroughly mixed to prepare a homogeneous solution, and a total of 30 seeds were each placed on the medium surface. The resultant was sealed with a surgical tape, allowed to stand at 4° C. for 2 days, and then transferred to 22° C. for germination.
On the basis of the concentrations above, sensitivity of the Arabidopsis thaliana plant comprising the TaQ8GTC0 gene introduced therein to VLCFAE-inhibiting herbicides was examined. The results are show in FIGS. 13 and 14. The photographs shown in FIGS. 13 and 14 were taken after the plants were grown at 22° C. for 14 days.

Assay [3] relates to transgenic rapeseed plants comprising the TaQ8GTC0 gene. Kind of assay: Rapeseed sensitivity test 1 (post-sowing/pre-emergence soil treatment), transgenic. The class given is in vivo, Brassica napus. How it is done:
Wild-type rapeseed plants (variety: Westar) and transgenic rapeseed plants comprising the wheat GST gene introduced therein were subjected to Rapeseed sensitivity test 1 in plastic pots (length: 8 cm; width: 8 cm; height: 6 cm). The test was carried out in Fujino soil (sandy loam soil), and 4 seeds of wild-type rapeseed and 8 seeds of transgenic rapeseed were sown in each pot (sowing depth: 1 cm). Water dispersible granules containing 50% pyroxasulfone were applied at 5 different doses of 1, 4, 16, 63, and 250 g a.i./ha (n=3). Immediately after pyroxasulfone treatment, about 1 mm of rain was fallen with the use of artificial rainfall device, and water was supplied from the bottom of the pots. Thereafter, water was supplied from the bottom of the pot when the soil surface was dried in the pot, according to need.
The difference in the sensitivity of rapeseed to pyroxasulfone applied pre-emergence was examined (temperature: 22° C., fluorescent light), and whether or not the transgenic rapeseed plant comprising wheat GST had pyroxasulfone resistance was evaluated in terms of the plant height, the herbicidal symptoms, and the cotyledon growth. Specifically, heights of the plants were measured 2 weeks after seeds sowing of rapeseed and pyroxasulfone application, and the inhibition was assessed by comparison to control plants grown in the absence of pyroxauslfone (n=4 to 12). In FIGS. 37 to 39, “TaGST” stands for a transgenic rapeseed plant comprising the TaQ8GTC0 gene. Values in the table in FIG. 38 are expressed as the mean±standard deviation (n=4 to 12).

As for `Cn1nc(C(F)(F)F)c(CS(=O)(=O)C2=NOC(C)(C)C2)c1OC(F)F` [Pyroxasulfone, 3-[5-(difluoromethoxy)-1-methyl-3-(trifluoromethyl)pyrazol-4-ylmethylsulfonyl]-4,5-dihydro-5,5-dimethyl-1,2-oxazole], the “pyroxasulfone concentration at which growth was substantially completely inhibited” value in assay [1] was no less than 1 µM. Further, the “growth of the wild-type Arabidopsis thaliana plant” value in assay [1] (pyroxasulfone 100 nM) is given as “inhibited to some extent”. In addition, the “sensitivity of the Arabidopsis thaliana plant comprising the TaQ8GTC0 gene to VLCFAE-inhibiting herbicides” value in assay [2] (KLB-718 1-1-5, concentrations of Table 5, 22° C., 14 days) is “strong resistance”. In addition, the “pyroxasulfone resistance relative to wild-type (Columbia-0)” value in assay [2] (all 7 lines used in the test) is given as “at least 10 times”. The “growth of the Arabidopsis thaliana plant comprising the TaQ8GTC0 gene” value is “in the same manner as with the Control” in assay [2] (pyroxasulfone 1 μM, 14 days) and “sufficiently grew” in assay [2] (pyroxasulfone 10 μM, 14 days). In assay [3] (250 g a.i./ha), the cotyledon growth entry is listed as “grew to a certain extent”. In addition, in assay [3] (Brassica napus, 336 h, 16 g a.i./ha, 2 weeks after sowing and application, 22° C., read-out: shoot growth inhibition (plant height)), the inhibition at 16 g/ha was 48.2%. Also, the “herbicidal symptoms (cotyledons dark green)” value in assay [3] (pre-emergence soil treatment, doses up to 250 g a.i./ha) is given as “not detected”.
